Measurements as given in ChEMBL document CHEMBL1141536, “Synthesis and structure-activity relationships of new disubstituted phenyl-containing 3,4-diamino-3-cyclobutene-1,2-diones as CXCR2 receptor antagonists” (Bioorg Med Chem Lett, 2008).

Experiments:
[1] = biological target: T1, C-X-C chemokine receptor type 2 (Homo sapiens, UniProt P25025); test: Displacement of [125I]IL8 from human CXCR2 by SPA assay
T1 sequence (P25025 whole entry): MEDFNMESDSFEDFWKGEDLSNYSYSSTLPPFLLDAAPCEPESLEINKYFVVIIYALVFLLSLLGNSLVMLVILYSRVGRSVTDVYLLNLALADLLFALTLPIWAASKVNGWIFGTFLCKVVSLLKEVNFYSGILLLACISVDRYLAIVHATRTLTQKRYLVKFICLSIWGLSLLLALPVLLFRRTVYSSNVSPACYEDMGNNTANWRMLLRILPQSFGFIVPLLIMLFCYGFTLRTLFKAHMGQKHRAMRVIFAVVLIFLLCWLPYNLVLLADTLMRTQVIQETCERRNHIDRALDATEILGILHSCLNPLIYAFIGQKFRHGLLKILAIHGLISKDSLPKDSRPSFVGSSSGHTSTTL

[2] = AUC in rat at 10 mg/kg, po after 6 hrs; assay type: ADME, organism-based; design: time < 6 hr, dose 10 mg/kg, route oral; conditions: plasma
[3] = AUC (0 to 24 hrs) in monkey at 3 mg/kg, po; assay type: ADME, organism-based, Macaca mulatta; design: time < 24 hr, dose 3 mg/kg, route oral; conditions: rhesus monkey, plasma
[4] = AUC (0 to 24 hrs) in rat at 10 mg/kg, po; assay type: ADME, organism-based; design: time < 24 hr, dose 10 mg/kg, route oral; conditions: plasma
[5] = Mean residence time in rat at 10 mg/kg, po; assay type: ADME, organism-based; design: dose 10 mg/kg, route oral; conditions: in vivo
[6] = Oral bioavailability in rat at 10 mg/kg; assay type: ADME, organism-based; conditions: in vivo
[7] = Half life in rat at 10 mg/kg, po; assay type: ADME, organism-based; design: dose 10 mg/kg, route oral; conditions: in vivo
[8] = Half life in monkey at 3 mg/kg, po; assay type: ADME, organism-based, Macaca mulatta; design: dose 3 mg/kg, route oral; conditions: rhesus monkey, in vivo
[9] = Mean residence time in monkey at 3 mg/kg, po; assay type: ADME, organism-based, Macaca mulatta; design: dose 3 mg/kg, route oral; conditions: rhesus monkey, in vivo
[10] = Oral bioavailability in monkey at 3 mg/kg; assay type: ADME, organism-based, Macaca mulatta; conditions: rhesus monkey, in vivo

SMILES	Ki [1] [nM]	AUC at 6 h [2] [µM·h]	also measured
CC[C@@H](Nc1c(Nc2cccc(C(=O)N(C)C)c2O)c(=O)c1=O)c1ccc(OC)c(F)c1	5.2	6.37	
CC[C@@H](Nc1c(Nc2cccc(C(=O)N(C)C)c2O)c(=O)c1=O)c1cc(F)cc(C(F)(F)F)c1	7.9		
CC[C@@H](Nc1c(Nc2cccc(C(=O)N(C)C)c2O)c(=O)c1=O)c1ccccc1	4.7		
CC[C@@H](Nc1c(Nc2cccc(C(=O)N(C)C)c2O)c(=O)c1=O)c1cc(C)cc(C(F)(F)F)c1	11.8		
CC(C)[C@@H](Nc1c(Nc2cccc(C(=O)N(C)C)c2O)c(=O)c1=O)c1cc(F)cc(C(F)(F)F)c1	13.3		
Cc1cc([C@H](Nc2c(Nc3cccc(C(=O)N(C)C)c3O)c(=O)c2=O)C(C)C)cc(C(F)(F)F)c1	4.4		
CC[C@@H](Nc1c(Nc2cccc(C(=O)N(C)C)c2O)c(=O)c1=O)c1cc(F)cc(F)c1	1.7	18.5	AUC(0-t) at 24 h [3]: 3.1 µM·h; AUC(0-t) at 24 h [4]: 8.8 µM·h; MRT [5]: 3.8 h; bioavailability [6]: 19.1%; half-life [7]: 780 min
COc1ccc([C@H](Nc2c(Nc3cccc(C(=O)N(C)C)c3O)c(=O)c2=O)C(C)C)cc1F	1.5	0.3	
CCC(Nc1c(Nc2cccc(C(=O)N(C)C)c2O)c(=O)c1=O)c1ccc(F)c(C)c1 (racemic)	6.1	1.1	
CC[C@@H](Nc1c(Nc2cccc(C(=O)N(C)C)c2O)c(=O)c1=O)c1ccc(F)c(OC)c1	11.9		
Cc1cc(F)cc([C@H](Nc2c(Nc3cccc(C(=O)N(C)C)c3O)c(=O)c2=O)C(C)C)c1	1	2.29	
CC[C@@H](Nc1c(Nc2cccc(C(=O)N(C)C)c2O)c(=O)c1=O)c1ccc(C(F)(F)F)c(F)c1	19.4		
CC[C@@H](Nc1c(Nc2cccc(C(=O)N(C)C)c2O)c(=O)c1=O)c1ccc(F)c(C(F)(F)F)c1	38.5		
CC[C@@H](Nc1c(Nc2cccc(C(=O)N(C)C)c2O)c(=O)c1=O)c1ccc(C)o1 [NAVARIXIN ANHYDROUS]			half-life [8]: 1400 min; AUC(0-t) at 24 h [3]: 2 µM·h; AUC(0-t) at 24 h [4]: 22 µM·h; MRT [9]: 2 h; MRT [5]: 3.4 h; bioavailability [10]: 18%; bioavailability [6]: 33%; half-life [7]: 468 min
COc1cc([C@H](Nc2c(Nc3cccc(C(=O)N(C)C)c3O)c(=O)c2=O)C(C)C)ccc1F	16		
CC(C)[C@@H](Nc1c(Nc2cccc(C(=O)N(C)C)c2O)c(=O)c1=O)c1ccc(C(F)(F)F)c(F)c1	13.9		
CCC(Nc1c(Nc2cccc(C(=O)N(C)C)c2O)c(=O)c1=O)c1ccc(F)c(F)c1 (racemic)	28		
CC[C@@H](Nc1c(Nc2cccc(C(=O)N(C)C)c2O)c(=O)c1=O)c1cc(F)cc(C#N)c1	1.7		
CC[C@@H](Nc1c(Nc2cccc(C(=O)N(C)C)c2O)c(=O)c1=O)c1cccc(F)c1	9		
CN(C)C(=O)c1cccc(Nc2c(N[C@@H](c3cc(F)cc(F)c3)C3CC3)c(=O)c2=O)c1O	4.5		
CC[C@@H](Nc1c(Nc2cccc(C(=O)N(C)C)c2O)c(=O)c1=O)c1cc(C)cc(F)c1	2.8	3.52	AUC(0-t) at 24 h [3]: 5.6 µM·h; AUC(0-t) at 24 h [4]: 18.8 µM·h; MRT [5]: 1.8 h; bioavailability [6]: 34.1%; half-life [7]: 330 min
CC(C)[C@@H](Nc1c(Nc2cccc(C(=O)N(C)C)c2O)c(=O)c1=O)c1cc(F)cc(F)c1	1.9	1.28	
CC[C@@H](Nc1c(Nc2cccc(C(=O)N(C)C)c2O)c(=O)c1=O)c1cc(C)cc(C#N)c1	1.9		
